Series [1] relates to Trypanosoma brucei. The series can be described thus: DNDI: Inhibition of Human African Trypanosomiasis, Cross 22, in vitro. It is filed as functional, organism-based.
In series [2] the test system is Trypanosoma brucei. The series can be described thus: DNDI: Inhibition of Human African Trypanosomiasis, SBRI 427, in vitro. It is filed as functional, organism-based.
Series [3] in a line: DNDI: Cytotoxicity against L929 mouse fibroblasts, CYTO-SP, 24 hour. To be noted: mouse, L929 mouse fibroblasts. It is filed as toxicity, cell-based.
Series [4] can be described thus: DNDI: Cytotoxicity against L929 mouse fibroblasts, 72 hour. It is filed as toxicity, cell-based. Conditions: mouse, L929 mouse fibroblasts.
The conditions of series [5]: mouse, microsomes, 1 µM.
Description: DNDI: in vitro intrinsic clearance in mouse liver microsomes at a concentration of 1uM
The nature of series [6]: DNDI: Solubility in phosphate buffered saline at pH7.4 measured by nephelometry at room temperature (NEPH-RT). The format is physicochemical. To be noted: pH 7.4.
Series [7] is described as follows: DNDI: Lipophilicity measured in Chromatographic hydrophobicity index (CHI) assay, pH 7.4. The format is physicochemical. To be noted: buffer.
A further series can be described thus: in vitro. To be noted: mouse, liver microsomes, t (1 / 2).
[8] abbreviates: Trypanosoma brucei, SBRI 427, read-out: IC50.

Values after ≈ are worked out from the molar mass of the structure shown. Values joined by “and” are separate entries in the source; they are usually repeats but may differ in a detail not shown here. Equal values may be shown once.

Description for in vitro: DNDI: half life in mouse liver microsomes at a concentration of 1uM

Consider `Brc1ccc(-c2nc(CNC3CCCCCC3)co2)cc1`, for which the IC50 in the series with Trypanosoma brucei [1] was 3.56 mg/L (≈ 10.2 µM); in the series on Trypanosoma brucei [2], 3.22 mg/L and 1.69 mg/L and 3.92 mg/L. Moreover, the IC50 at 24 h in series [3] was more than 50 mg/L. The IC50 at 72 h in series [4] came to 15.7 mg/L (≈ 44.9 µM).
As for `CCCCCC(C)NCc1coc(-c2ccc(OC3CCCCC3)cc2)n1` (stereo not given), in the series on Trypanosoma brucei [2] (setting [8]), the IC50 was found to be 0.39 mg/L (≈ 1.05 µM). The molecule also gave a CLint in vitro in series [5] of 13 µL/min/mg. In addition, in series [6], the solubility (kinetic) turned out to be 3 µM (≈ 1.11 µg/mL). This molecule also had a chromatographic logD in series [7] of 4.28. In series [4], this molecule gave an IC50 at 72 h of 1.48 mg/L (≈ 3.99 µM). The molecule further displayed a half-life at 1 µM in the series “in vitro” of 1.08 h.
Regarding `Clc1ccc(-c2nc(CNC3[C@H]4C[C@@H]5C[C@@H](C[C@H]3C5)C4)co2)cc1` (stereo not given in full), the IC50 is 2.29 mg/L (≈ 6.68 µM) with Trypanosoma brucei [1]; 2.01 mg/L and 2.82 mg/L with Trypanosoma brucei [2]; 1.8 mg/L (≈ 5.25 µM) in the series with Trypanosoma brucei [2] (setting [8]). In series [3], this molecule gave a half-maximal inhibitory concentration (IC50) at 24 h of more than 50 mg/L. For the same molecule, the IC50 at 72 h in series [4] came to 6.73 mg/L (≈ 19.6 µM).
Consider `CCCCOc1ccc(-c2nc(CNCCC3CCCN3C)co2)cc1` (stereo not given), for which the IC50 in the series on Trypanosoma brucei [2] (setting [8]) was found to be 0.31 mg/L (≈ 0.867 µM). Also, the CLint in vitro in series [5] was 12 µL/min/mg. Moreover, the solubility (kinetic) in series [6] came out at 2 µM (≈ 0.715 µg/mL). The molecule further registered a chromatographic logD in series [7] of 4.64. The molecule also had an IC50 at 72 h in series [4] of 2.9 mg/L (≈ 8.11 µM). Also, the half-life at 1 µM in “in vitro” was determined as 1.22 h.
Regarding `COc1ccc(/C(=N\O)Nc2ccccc2)cc1`, the IC50 with Trypanosoma brucei [2] (setting [8]) is 2.72 mg/L (≈ 11.2 µM). In series [5], this molecule registered a CLint in vitro of 121 µL/min/mg. Further, the solubility (kinetic) in series [6] is more than 200 µM. The same molecule gave a chromatographic logD in series [7] of 3.1. This molecule also registered a concentration for half-maximal inhibition (IC50) at 24 h in series [3] of more than 50 mg/L. In “in vitro”, the half-life at 1 µM was 0.117 h.
In the case of `C[C@@H]1[C@H]2C[C@@H](C[C@H]1NCc1coc(-c3ccc(Br)cc3)n1)C2(C)C`, the IC50 in the series with Trypanosoma brucei [1] is 0.82 mg/L (≈ 2.11 µM); in the series with Trypanosoma brucei [2], 0.42 mg/L and 0.92 mg/L and 0.85 mg/L. In series [3], this molecule gave an IC50 at 24 h of more than 50 mg/L. The same molecule showed a 50% inhibitory concentration (IC50) at 72 h in series [4] of less than 3.13 mg/L.
Consider `C[C@@H]1[C@H]2C[C@@H](C[C@H]1NCc1coc(-c3ccc(C(C)(C)C)cc3)n1)C2(C)C`, for which the IC50 in the series on Trypanosoma brucei [1] and with Trypanosoma brucei [2] (setting [8]) was more than 5 mg/L in each case. This molecule registered an IC50 at 24 h in series [3] of more than 50 mg/L. The molecule also yielded a 50% inhibitory concentration (IC50) at 72 h in series [4] of more than 50 mg/L.
`CCCCCOc1ccc(-c2nc(CNCCC3CCCN3C)co2)cc1` (stereo not given): the IC50 in the series with Trypanosoma brucei [2] (setting [8]) is 0.14 mg/L (≈ 0.377 µM). Moreover, the CLint in vitro in series [5] is 11 µL/min/mg. In series [6], this molecule came in with a kinetic solubility of less than 1 µM. Further, the chromatographic logD in series [7] turned out to be 5.2. Moreover, in series [4], the IC50 at 72 h is 1.21 mg/L (≈ 3.26 µM). In addition, the half-life at 1 µM in “in vitro” was 1.27 h.
As for `C[C@H]1C(NCc2coc(-c3ccc(Cl)cc3)n2)C[C@@H]2C[C@H]1C2(C)C` (stereo not given in full), the IC50 in the series on Trypanosoma brucei [1] was 0.9 mg/L (≈ 2.61 µM); in the series with Trypanosoma brucei [2], 0.71 mg/L and 0.8 mg/L; in the series on Trypanosoma brucei [2] (setting [8]), 1.06 mg/L (≈ 3.07 µM). Besides, the IC50 at 24 h in series [3] is more than 50 mg/L. In series [4], this molecule registered an IC50 at 72 h of less than 3.13 mg/L.
As to `Brc1ccc(-c2nc(CNC3[C@H]4C[C@@H]5C[C@@H](C[C@H]3C5)C4)co2)cc1` (stereo not given in full), the IC50 with Trypanosoma brucei [1] is 2.26 mg/L (≈ 5.83 µM); in the series with Trypanosoma brucei [2], 1.2 mg/L and 3.02 mg/L and 2.81 mg/L. The same molecule had an IC50 at 24 h in series [3] of more than 50 mg/L. The molecule further had a concentration for half-maximal inhibition (IC50) at 72 h in series [4] of 8.08 mg/L (≈ 20.9 µM).
Consider `CC(C)(C)c1ccc(-c2nc(CNC[C@@H]3CC[C@H]4C[C@@H]3C4(C)C)co2)cc1`, for which the IC50 in the series with Trypanosoma brucei [1] and in the series on Trypanosoma brucei [2] (setting [8]) was more than 5 mg/L throughout. This molecule returned an IC50 at 24 h in series [3] of more than 50 mg/L. Further, in series [4], the IC50 at 72 h is more than 50 mg/L.
On to `CC1CC(NCc2coc(-c3ccc(Br)cc3)n2)CC(C)(C)C1` (stereo not given), for which the IC50 is 0.87 mg/L (≈ 2.31 µM) with Trypanosoma brucei [1]; 0.54 mg/L and 0.97 mg/L and 1.17 mg/L in the series with Trypanosoma brucei [2]. In addition, the IC50 at 24 h in series [3] was more than 50 mg/L. The molecule further displayed an IC50 at 72 h in series [4] of less than 3.13 mg/L.
With `CC1(C)[C@H]2CC[C@@H](CNCc3coc(-c4ccc(Br)cc4)n3)[C@@H]1C2`, the IC50 in the series with Trypanosoma brucei [1] and in the series on Trypanosoma brucei [2] (setting [8]) was more than 5 mg/L each time. Further, the IC50 at 24 h in series [3] was more than 50 mg/L. This molecule also yielded an IC50 at 72 h in series [4] of 50 mg/L (≈ 128 µM).
`COc1ccc(CNC(CC(C)C)c2nc(Cc3ccccc3)c(N3CCOCC3)o2)cc1` (stereo not given): the IC50 in the series on Trypanosoma brucei [2] (setting [8]) was determined as 2.23 mg/L (≈ 4.96 µM). For the same molecule, the CLint in vitro in series [5] is 463 µL/min/mg. For the same molecule, in series [6], the kinetic solubility was determined as 25 µM (≈ 11.2 µg/mL). The chromatographic logD in series [7] is more than 5.2. Moreover, the IC50 at 72 h in series [4] is more than 10 mg/L. In addition, the half-life at 1 µM in the series “in vitro” is 0.0333 h.
On to `CCCCCOc1ccc(-c2nc(CNC3CC(C)CC(C)(C)C3)co2)cc1` (stereo not given), for which the IC50 in the series with Trypanosoma brucei [2] (setting [8]) is 0.16 mg/L (≈ 0.416 µM). Besides, the CLint in vitro in series [5] came out at 8 µL/min/mg. Besides, in series [6], the solubility (kinetic) amounted to 2 µM (≈ 0.769 µg/mL). The chromatographic logD in series [7] amounted to 6.02. In addition, the IC50 at 24 h in series [3] is more than 50 mg/L. Also, in series [4], the half-inhibitory concentration (IC50) at 72 h is less than 3.13 mg/L. In addition, the half-life at 1 µM in the series “in vitro” was determined as 1.78 h.

Source of the values: ChEMBL document CHEMBL1857833, “Screening and optimization of specific chemical series against human African Trypanosomiasis (HAT)”.
